According to patent US20230203005A1, “COMPOUNDS WITH TUBULIN POLYMERISATION INHIBITORY ACTIVITY AND IMMUNOMODULATORY PROPERTIES” (UNIVERSITE PARIS-SACLAY, priority 2018, published 2023):

Experiments:
[1] = test system: tubulin; assay: Tubulin polymerisation inhibition (fluorescence assembly assay); format: biochemical, ewe; settings: inhibition of 50% of the maximum assembly rate; tubulin 10 μM
Procedure: The tubulin is purified from ewe brains according to the Shelanski method by 2 assembly-disassembly cycles. The mother solution (15-20 mg/mL), stored at −196° C., is thawed and diluted in the assembly buffer (0.1 M MES, 0.5 mM MgCl2, 1 mM EGTA, and 1 mM GTP, pH 6.6) to have a final concentration of 10 μM. Tubulin assembly is monitored by fluorescence on 96 well plates according to the method of Barron et al. (Anal. Biochem. 315 (2003) 49-56). To the solution of tubulin (10 μM, 100 μL per well) is added the inhibitor (DMSO, 1 μL) and the solution is incubated for 45 min at room temperature. GTP (1 mM final) is next added, the solution is rapidly mixed and the fluorescence (λex=350 nm, λem=440 nm) is measured on a Wallac Victor fluorimeter (Perkin Elmer). The determination of the inhibition of 50% of the maximum assembly rate (IC50) is carried out in duplicate or triplicate over 10 concentrations surrounding the IC50.

[2] = test system: HCT116 cells; assay: Apoptosis, caspase-3/7 activity (Apo-one assay); format: cell-based, human; settings: HCT116, 24 h treatment, various concentrations
Procedure: In order to clarify whether compound 1 brings about cell death by apoptosis, the intracellular enzymatic activity of caspases 3 and 7 was evaluated in cultures of HCT116 cells exposed for 24 hours to the action of compound 1.
Apoptosis is measured using the “Apo-one homogeneous caspase-3/7 assay” kit (Promega Co, WI, USA) following the manufacturer's recommendations. Briefly, the cells are seeded in 96 well culture plates at a rate of 50,000 cells per well in 100 μL of culture medium. After 24 hours of incubation, the medium is replaced by 100 μL of culture medium containing different concentrations of compound 1 or 0.1% of DMSO (negative control). After 24 hours of treatment, to each well is added 100 μL of reagent containing the caspase substrate and the buffer for the reaction. After 1 hour incubation, the fluorescence emitted by the cells is measured at 527 nm using a Victor type microplate reader (Perkin-Elmer, USA).

[3] = test system: HUVECs; assay: Formation of vascular tubes on Matrigel; format: cell-based, human; settings: 5 hours, 10 nM (non-toxic)
Procedure: To determine whether compound 1 disrupts the spatial organisation of endothelial cells into structures similar to vascular capillaries, human endothelial cells (HUVECs) were treated immediately after culturing on Matrigel™ or after 24 hours of culture, in order to allow them to form vascular tubes.
The HUVECs (human endothelial cells derived from the umbilical cord) were cultivated in EGM2 culture medium (Promocell, Germany). The cells were maintained in culture at 37° C. in a humid atmosphere containing 5% CO2.
To evaluate the anti-vascular activity of compound 1, the HUVECs were cultured in 96 well culture plates covered beforehand with an extract of extracellular matrix (Matrigel™, BD Biosciences, Le Pont-de-Claix, France) in which they spontaneously form capillary tubes.
Firstly, we measured the capacity of compound 1 to inhibit the formation of the capillary network. Matrigel™ is deposited in the 96 well culture plates at a rate of 70 μL/well and left to incubate at 37° C. for 45 minutes to enable its polymerisation. 20,000 HUVECs are seeded in each of the wells containing Matrigel™ in the absence or in the presence of different concentrations of compound 1, at a rate of 3 wells per concentration. After 2 hours, 3 hours and 5 hours of incubation at 37° C., the cells are observed and photographed using a TE2000 type optical microscope (Nikon, France), equipped with a camera. […]

[4] = test system: HCT116 colorectal carcinoma; assay: In vitro cytotoxicity (CellTiter-Blue), HCT116; format: cell-based; settings: Homo sapiens, HCT-116; 72 hours of incubation
Procedure: (§1) The biological activity of the compounds of the invention were studied in vitro on […] human cancer cell lines of different tissular origins: HCT116 colorectal carcinoma; A2780R Cisplatin resistant ovary cancer; MiaPaca2 pancreatic cancer; K562R Doxorubicin resistant chronic myeloid leukaemia; JIM-T1 Trastuzumab-DM1 resistant mammal carcinoma; and HepG2 hepatic carcinoma. The cells selected for this study were incubated at 37° C. in the presence of one of the compounds added to the culture medium at different concentrations. The series of experiments carried out made it possible to determine the degree of toxicity of the compound tested, its effect on cell cycle progression as well as its capacity to induce cell death by apoptosis.
All the cell lines were maintained in culture at 37° C. in a humid atmosphere containing 5% CO2. Cell viability was evaluated using the reagent CellTiter-Blue™ (Promega, Wis., USA) while respecting the manufacturer's instructions. The cells were seeded in 96 well culture plates at a rate of 5000 cells per […] in 50 μl of culture medium. After 24 hours of culture, the compounds of generic formula (I) dissolved in DMSO were added individually to each of the wells at a rate of 50 μl per well. All the compounds were tested in triplicate for each concentration defined and each experiment was repeated 3 times. After 72 hours of incubation, 20 μL of resazurin were added to each well. After 2 hours of incubation, the fluorescence emitted was measured at 590 nm after excitation at 560 nm by means of a Victor type fluorescence reader (Perkin-Elmer, USA).

[5] = test system: HCT116 cells; assay: Analysis of the cell cycle by flow cytometry; format: cell-based, human; settings: HCT116, 24 hours of exposure, 5 nM
Procedure: The HCT116 cells are seeded in 6 well culture plates at a rate of 300,000 cells per well in their respective media described above. After 24 hours of culture, compound 1 was added to each of the wells at different concentrations. After 24 hours of incubation, the cells are collected individually in 15 mL tubes then centrifuged. The cells are next washed twice in cold PBS then re-suspended in 1 mL of PBS, fixed by adding 2 mL of cold absolute ethanol and placed at 4° C. for 1 hour. After centrifugation, the cells are washed twice in PBS then the cell pellet is taken up in 100 μL of 1%. Triton X100. After 30 minutes of incubation at room temperature, 50 μL of RNase A boiled beforehand (1 mg/mL) and 500 μL of propidium iodide (50 μg/mL) are added to each tube and incubated in darkness at room temperature for 30 minutes. The distribution of the number of cells in each of the phases of the cell cycle is next determined by flow cytometry using a FC500 type cytometer (Beckman-Coulter, France).

[6] = test system: K562R Doxorubicin resistant chronic myeloid leukaemia; assay: In vitro cytotoxicity (CellTiter-Blue), K562R; format: cell-based; settings: Homo sapiens, K-562R; 72 hours of incubation
Procedure: as §1
(§2) All the cell lines were maintained in culture at 37° C. in a humid atmosphere containing 5% CO2. Cell viability was evaluated using the reagent CellTiter-Blue™ (Promega, Wis., USA) while respecting the manufacturer's instructions. The cells were seeded in 96 well culture plates at a rate of 5000 cells per […] in 50 μl of culture medium. […] After 2 hours of incubation, the fluorescence emitted was measured at 590 nm after excitation at 560 nm by means of a Victor type fluorescence reader (Perkin-Elmer, USA).

[7] = test system: JIM-T1 Trastuzumab-DM1 resistant mammal carcinoma; assay: In vitro cytotoxicity (CellTiter-Blue), JIM-T1; format: cell-based; settings: Homo sapiens, JIMT-1; 72 hours of incubation
Procedure: as §1, §2

[8] = test system: MiaPaca2 pancreatic cancer; assay: In vitro cytotoxicity (CellTiter-Blue), MiaPaca2; format: cell-based; settings: Homo sapiens, MIA PaCa-2; 72 hours of incubation
Procedure: as §1, §2

[9] = test system: A2780R Cisplatin resistant ovary cancer; assay: In vitro cytotoxicity (CellTiter-Blue), A2780R; format: cell-based; settings: Homo sapiens; 72 hours of incubation
Procedure: as §1, §2

[10] = prior art WO 2008/122620; cited from earlier work

SMILES | IC50 [1] [nM] | IC50 [4] [nM] | further results
Cc1cc(N(C)c2ccc3c(c2)c2ccccc2n3C)c2ccccc2n1 [Compound 1, N,9-Dimethyl-N-(2-methylquinolin-4-yl)-9H-carbazol-3-amine] | 1130 ± 160 | 0.07 ± 0.09 | Induction of apoptosis (caspases 3 and 7 activity) [2]: strong induction of apoptosis; Number of vascular tubes [3]: very important decrease in the number of vascular tubes; Effect on cell cycle [5]: blocks cellular division in the G2/M phase; IC50 [6]: 0.277 ± 0.017 nM; IC50 [7]: 0.36 ± 0.02 nM; IC50 [8]: 0.47 ± 0.01 nM; IC50 [9]: 0.54 ± 0.094 nM
CN(c1ccc2c(c1)c1ccccc1n2C)c1cc(C#N)nc2ccccc12 [Compound 2, 4-(Methyl(9-methyl-9H-carbazol-3-yl)amino)quinoline-2-carbonitrile] | 1400 ± 510 | 12 ± 0.8 | –
CN(c1ccc2c(c1)c1ccccc1n2C)c1ccnc2ccccc12 [Compound 4, N,9-Dimethyl-N-(quinolin-4-yl)-9H-carbazol-3-amine] | – | – | melting point: 222.2 to 228.4 °C
Cc1cc(N(C)c2ccc3c(c2)c2ccccc2n3Cc2ccccc2)c2ccccc2n1 [Compound 5, 9-Benzyl-N-methyl-N-(2-methylquinolin-4-yl)-9H-carbazol-3-amine] | – | – | melting point: 192.7 to 196.5 °C
COc1cccc2c(N(C)c3ccc4c(c3)c3ccccc3n4C)cc(C)nc12 [Compound 6, N-(8-Methoxy-2-methylquinolin-4-yl)-N,9-dimethyl-9H-carbazol-3-amine] | 1480 ± 520 | 21.6 ± 0.71 | –
Cc1cc(N(C)c2ccc3c(c2)c2ccccc2n3C)c2cc([N+](=O)[O-])ccc2n1 [Compound 7, N,9-Dimethyl-N-(2-methyl-6-nitroquinolin-4-yl)-9H-carbazol-3-amine] | – | – | melting point: 207.6 to 212.4 °C
CCn1c2ccccc2c2cc(N(C)c3cc(C)nc4ccccc34)ccc21 [Compound 8, 9-Ethyl-N-methyl-N-(2-methylquinolin-4-yl)-9H-carbazol-3-amine] | – | – | melting point: 87.4 to 89.6 °C
Cc1nc(N(C)c2ccc3c(c2)c2ccccc2n3C)c2ccccc2n1 [Compound 9, N,9-Dimethyl-N-(2-methylquinazolin-4-yl)-9H-carbazol-3-amine] | 3800 ± 900 | 2.4 ± 0.2 | –
CN(c1ccc2c(c1)c1ccccc1n2C)c1nc(Cl)nc2ccccc12 [Compound 10, N-(2-Chloroquinazolin-4-yl)-N,9-dimethyl-9H-carbazol-3-amine] | 3140 ± 1040 | 1.06 ± 0.2 | –
Cc1cc(N(C)c2ccc3c(c2)c2cc(N)ccc2n3C)c2ccccc2n1 [Compound 14, N3,9-dimethyl-N3-(2-methylquinolin-4-yl)-9H-carbazole-3,6-diamine] | 2760 ± 500 | 2.88 ± 1.54 | –
Cc1cc(N(C)c2ccc3c(c2)c2ccccc2n3C)c2cccc(O)c2n1 [Compound 15, 2-Methyl-4-(methyl(9-methyl-9H-carbazol-3-yl)amino)quinolin-8-ol] | 1240 ± 400 | 50.6 ± 0.66 | –
Cc1cc(N(C)c2ccc3c(c2)c2ccccc2n3C)c2cc(N)ccc2n1 [Compound 16, N4,2-Dimethyl-N4-(9-methyl-9H-carbazol-3-yl)quinoline-4,6-diamine] | 5760 ± 1470 | 24.5 ± 1.92 | –
CN(c1ccc2c(c1)c1ccccc1n2C)c1cc(Cl)nc2ccccc12 [Compound 17, N-(2-Chloroquinolin-4-yl)-N,9-dimethyl-9H-carbazol-3-amine] | 1160 ± 310 | 16.7 ± 0.38 | –
Cc1cc(N(C)c2ccc3c(ccn3C)c2)c2ccccc2n1 [Compound 18, N,2-Dimethyl-N-(1-methyl-1H-indol-5-yl)quinolin-4-amine] | 1340 ± 450 | 2 ± 0.04 | –
CN(c1ccc2c(ccn2C)c1)c1cc(C#N)nc2ccccc12 [Compound 19, 4-(Methyl(1-methyl-1H-indol-5-yl)amino)quinoline-2-carbonitrile] | 2780 ± 1140 | 0.72 ± 0.03 | melting point: 173.1 to 174.2 °C
CN(c1ccc2c(ccn2C)c1)c1cc(C(F)(F)F)nc2ccccc12 [Compound 20, N-Methyl-N-(1-methyl-1H-indol-5-yl)-2-(trifluoromethyl)quinolin-4-amine] | 2500 ± 540 | 3.28 ± 0.18 | –
CN(c1ccc2c(ccn2C)c1)c1nc(Cl)nc2ccccc12 [Compound 21, 2-Chloro-N-methyl-N-(1-methyl-1H-indol-5-yl)quinazolin-4-amine] | 1190 ± 280 | 0.2 ± 0.01 | IC50 [6]: 1.77 ± 0.162 nM; IC50 [7]: 0.52 ± 0.016 nM; IC50 [8]: 0.62 ± 0.016 nM; IC50 [9]: 2.34 ± 0.18 nM
C=C(c1ccc(OC)c(O)c1)c1cc(OC)c(OC)c(OC)c1 [isoCA-4, Isocombretastatin A-4] | – | – | Metabolism in the presence of hepatocytes [10]: do not metabolise in the presence of hepatocytes
C=C(c1ccc(OC)c(N)c1)c1cc(OC)c(OC)c(OC)c1 [isoNH2CA-4, isoaminocombretastatin A-4] | – | – | Metabolism in the presence of hepatocytes [10]: do not metabolise in the presence of hepatocytes
